According to US6365621B1, “Remedies or preventives for intractable epilepsy” (Pharmaceutical Co., Ltd., priority 1998, dated 2002):
“And” between values parts separate entries of the source, which are not always exact repeats. Equal values may be shown once.

Legend:
[1] = tested on: kainate-induced cortical focal seizures; experiment: Kainate-induced cortical focal seizures: behavior and electroencephalogram; format: in vivo, rat; conditions: 100 mg/kg i.v. As to Decrease of Spikes: key: (+): effective; (−): ineffective. As to Sedative action: key: (+): effective; (−): ineffective. As to Spikes after 24 hours: key: (+): effective; (−): ineffective.
Protocol: [Method for measuring an electrophysiological effect] A stereotaxic operation was performed through the same manner as described in I-1 by use of Wistar male rats. A cannula was inserted in the left sensorimotor area for injection of kainic acid, and the cannula was simultaneously used as an electrode. A bipolar depth electrode was set in the bilateral caudatum, and screw electrodes were set in the right sensorimotor area, frontal sinus, and occipital bone. Seven days after operation, 1 μL of kainic acid solution (2 mg/mL) was injected so as to induce cortical focal seizures. After elapse of 1-2 hours from the injection of kainic acid, the same nefiracetam solution as described in I-1 (100 mg/kg) was intravenously injected, and behavior and electroencephalograms were recorded by use of a video electroencephalogram recorder. Suppression of seizures just after the administration of nefiracetam, changes in electroencephalograms, occurrence of seizures thereafter, and electroencephalogram observations were compared with those of the control group.

[2] = tested on: fully amygdala kindled rats; experiment: Seizures in fully amygdala kindled rats (GST stimulation); format: in vivo, rat; conditions: for Change of ADD (%): afterdischarge duration before administration = 100; for Change of MSD (%): motor seizure duration before administration = 100
Protocol: [Method for preparing a kindling model] Male Wistar rats (weight: 200-250 g, Tokyo Jikken Dobutsu) were used, and pentobarbital (50 mg/kg, Dinabot) and ketamine (50 mg/kg, Sankyo Co., Ltd.) were used as anesthetic agents.
A dose-response of nefiracetam (15-180 mg/kg) with respect to a kindling seizure induced GTS stimulation intensity was evaluated in terms of the following parameters: seizure stage, and afterdischarge duration at the sitimulated amygdala and motor seizure duration.
In accordance with the method of Racine et al. (Modification of seizure activity by electrical stimulation: II motor seizure. Electroencephalography Clin. Neurophysiol. 1972. 32: 281-294), seizures were classified into the following five stages: stage 1 (chewing); stage 2 (head nodding); stage 3 (forelimb clonus); stage 4 (rearing); and stage 5 (rearing and falling).
Motor seizure duration (seconds) was represented by the total duration of stages 3 through 5. Stage 1 or Stage 2 is a seizure symptom of the limbic system, and Stage 3, 4, or 5 is regarded a motor seizure (Sato, M., Racine, R. J., McIntyre, D. C., Kindling: basic mechanisms and clinical validity, Electroencephalography Clin. Neurophysiol. 1990, 76: 459-472).
Afterdischarge duration (seconds) was recorded by use of an electrode for recording, and was represented by the seizure-discharge duration shown in a electroencephalogram, which is induced by a kindling stimulation. Nefiracetam was dissolved into a solvent (0.5% carboxymethyl cellulose) and the solution was administered orally 90 minutes before GST stimulation, wherein the amount of administered nefiracetam is classified into several stages within a range of 15-180 mg/kg.
[Method] The rats used in this Example were of the same type in terms of the source of purchase, body weight, and age (week). For each rat, in the same manner as in of Example 1, there were performed anesthetization, setting of an electrode on the amygdala, fixation of the electrode at the cranial bone, and a kindling stimulation (50 Hz, sine wave).
For non-administered rats and nefiracetam-administered rats (120 mg/kg), the effect of the administration was evaluated when GST stimulation intensity was increased by a factor of two (GST 2) or three (GST 3). The effect of 120 mg/kg of nefiracetam on kindling seizures induced by one-fold, two-fold, and three-fold GTS stimulation was evaluated in terms of the following parameters: seizure stage, motor seizure duration, and afterdischarge duration.

SMILES: Cc1cccc(C)c1NC(=O)CN1CCCC1=O [nefiracetam, N-(2,6-dimethylphenyl)-2-(2-oxo-1-pyrrolidinyl)acetamide]
- Seizures after awakening [1]: seizures did not appear after awakening
- Seizures after intravenous injection during status epilepticus [1]: the seizures disappeared immediately
- Time to awakening from sedation [1]: ≤ 60 min
- Decrease of Spikes ([1]; individual rats): +
- Disappear of seizures ([1]; individual rats): +
- Reappear of seizures ([1]; individual rats): −
- Sedative action ([1]; individual rats): +
- Spikes after 24 hours ([1]; individual rats): − and + (2×)
- Change of stage (%) ([2]; 15 mg/kg p.o. 90 min before GST stimulation, seizure stage before administration = 100): 80.0%
- Change of ADD (%) ([2]; 15 mg/kg p.o.): 81.7%
- Change of stage (%) ([2]; 30 mg/kg p.o. 90 min before GST stimulation, seizure stage before administration = 100): 100.0%
- Change of ADD (%) ([2]; 30 mg/kg p.o.): 99.9%
- Change of stage (%) ([2]; 60 mg/kg p.o. 90 min before GST stimulation, seizure stage before administration = 100): 80.0%
- Change of ADD (%) ([2]; 60 mg/kg p.o.): 83.9%
- Change of stage (%) ([2]; 90 mg/kg p.o. 90 min before GST stimulation, seizure stage before administration = 100): 76.0%
- Change of ADD (%) ([2]; 90 mg/kg p.o.): 82.3%
- Change of stage (%) ([2]; 120 mg/kg p.o. 90 min before GST stimulation, seizure stage before administration = 100): 13.3%
- Change of ADD (%) ([2]; 120 mg/kg p.o.): 25.0%
- Effect on afterdischarge duration ([2]; 120 mg/kg, 3-times-GST stimulation intensity): the afterdischarge duration was restored
- Change of stage (%) ([2]; 120 mg/kg, GST intensity 1-fold, before administration = 100): 16.7%
- Change of MSD (%) ([2]; 120 mg/kg, GST intensity 1-fold): 11.1%
- Change of stage (%) ([2]; 120 mg/kg, GST intensity 2-fold, before administration = 100): 14.7%
- Change of MSD (%) ([2]; 120 mg/kg, GST intensity 2-fold): 15.2%
- Change of stage (%) ([2]; 120 mg/kg, GST intensity 3-fold, before administration = 100): 52.0%
- Change of MSD (%) ([2]; 120 mg/kg, GST intensity 3-fold): 43.8%
- Effect on afterdischarge duration ([2]; 120 mg/kg, one-fold GST stimulation intensity): significant and strong inhibition
- Effect on afterdischarge duration ([2]; 120 mg/kg, two-fold GST stimulation intensity): an effect on afterdischarge duration was reduced
- Change of stage (%) ([2]; 180 mg/kg p.o. 90 min before GST stimulation, seizure stage before administration = 100): 36.0%
- Change of ADD (%) ([2]; 180 mg/kg p.o.): 24.8%
- Effect on seizure stage, motor seizure duration and afterdischarge duration ([2]; 15-180 mg/kg p.o., GST stimulation): dose-dependent inhibition
- ED50 (effect on seizure stage) ([2]; regression curve by least-squares method, p.o., fully kindled rats): 114 mg/kg
